Source: US20090172831A1, “Methods for the production of plants resistant to HPPD herbicides” (Syngenta Limited, priority 2000, published 2009)
pKd: −log10 of the molar value.

Assays:
[1] = molecular target: T1, Arabidopsis HPPD (Arabidopsis thaliana, UniProt P93836); experiment: Dissociation of enzyme/inhibitor complexes by exchange with 14C-labelled inhibitor (koff; Kd = koff/kon); assay type: binding
T1 construct: made in house; host or cells: E. coli BL21 (DE3) codon+ RP
T1 sequence (P93836 1-445): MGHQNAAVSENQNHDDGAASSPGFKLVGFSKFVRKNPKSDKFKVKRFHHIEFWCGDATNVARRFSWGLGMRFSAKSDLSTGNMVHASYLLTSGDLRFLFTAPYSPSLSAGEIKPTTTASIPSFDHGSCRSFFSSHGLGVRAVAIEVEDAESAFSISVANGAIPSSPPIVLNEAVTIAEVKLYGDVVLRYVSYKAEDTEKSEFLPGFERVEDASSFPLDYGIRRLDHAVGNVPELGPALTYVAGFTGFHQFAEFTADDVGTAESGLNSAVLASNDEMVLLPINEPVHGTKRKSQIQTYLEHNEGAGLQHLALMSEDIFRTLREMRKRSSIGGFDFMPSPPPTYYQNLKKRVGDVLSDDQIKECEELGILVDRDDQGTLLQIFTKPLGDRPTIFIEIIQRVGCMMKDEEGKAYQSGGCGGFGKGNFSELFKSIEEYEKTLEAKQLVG
Experimental: It will be appreciated that many suitable methods known in the art for determining such low koff values are suitable for working the current invention. These include measuring rates of exchange of radio or otherwise labelled inhibitors either with or away from the enzyme inhibitor complex. For example enzyme inhibitor complexes can readily be prepared by incubating HPPD preparations with labelled or unlabelled inhibitor and then, after suitable periods, optionally rapidly separating the thus formed enzyme inhibitor complex from excess inhibitor by any suitable method such as ultrafiltration, binding to filters or exchange down a gel filtration column. Exchange reactions with the, thus prepared enzyme inhibitor complex is then initiated by addition of, as appropriate, excess labelled or unlabelled inhibitor. […] Many methods such as radiometric, fluorimetric, NMR, fluorescence depolarisation, EPR, Mossbauer, UV/VIS spectrophotometry etc. or phonon resonance can, in principle, be used to monitor the enzyme/ligand exchange reactions and, particularly in this case where the enzyme contains an iron atom at the ligand binding site. Optionally, the monitoring method may be continuous (as, for example, with scintillation proximity/bead-based methods) or, discontinuous, based upon collection of data at various timepoints wherein samples are removed and the bound and unbound label components rapidly separated and quantitated.
(§1) Values of koff can suitably be calculated by computer fitting based upon is numerical integration of the exchange data along with information on the active-site concentration of HPPD and upon kon values obtained as described below. […] In any event, koff values are always here calculated from the rate of the major slow exchange reaction.
^14C mesotrione is of specific activity 1.12 GBq/mmol. […] Following this initial binding reaction, exchange reactions are initiated by addition of cold mesotrione to a final concentration of 60 μM and 200 μl aliquots removed at various times to rapid chromatography down a NAP5 gel filtration column equilibrated in 50 mM BTP at pH 7 containing 0.1 M KCl, separation into fractions containing protein-bound or free radiolabel and liquid scintillation counting.
Nevertheless, here, for practical purposes, koff values are always here calculated from the rate of the major slow exchange reaction.
Not all test inhibitors are readily available in a radiolabelled form.

[2] = molecular target: Wheat HPPD (Triticum aestivum, UniProt A0A3B6NLC6); experiment: as above; assay type: binding
Chain of Wheat HPPD (A0A3B6NLC6 entry or part of it): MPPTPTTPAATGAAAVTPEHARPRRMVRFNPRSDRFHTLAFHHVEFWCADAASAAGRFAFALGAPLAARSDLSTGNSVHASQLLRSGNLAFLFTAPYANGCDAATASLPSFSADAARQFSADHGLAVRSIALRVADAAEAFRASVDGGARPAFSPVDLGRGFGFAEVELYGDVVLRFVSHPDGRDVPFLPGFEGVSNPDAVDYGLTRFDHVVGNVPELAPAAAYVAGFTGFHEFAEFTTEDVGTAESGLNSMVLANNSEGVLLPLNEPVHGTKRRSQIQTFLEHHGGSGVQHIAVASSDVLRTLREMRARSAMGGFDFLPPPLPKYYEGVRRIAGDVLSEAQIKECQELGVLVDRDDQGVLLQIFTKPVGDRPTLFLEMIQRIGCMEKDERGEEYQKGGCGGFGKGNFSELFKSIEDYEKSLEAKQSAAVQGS
Source text: (§2) Herbicidal inhibitors of HPPD are found here to have generally low values of koff (in the range less than 0.0003 s^−1, often less than 0.000001 s^−1). It will be appreciated that many suitable methods known in the art for determining such low koff values are suitable for working the current invention. These include measuring rates of exchange of radio or otherwise labelled inhibitors either with or away from the enzyme inhibitor complex. For example enzyme inhibitor complexes can readily be prepared by incubating HPPD preparations with labelled or unlabelled inhibitor and then, after suitable periods, optionally rapidly separating the thus formed enzyme inhibitor complex from excess inhibitor by any suitable method such as ultrafiltration, binding to filters or exchange down a gel filtration column. Exchange reactions with the, thus prepared enzyme inhibitor complex is then initiated by addition of, as appropriate, excess labelled or unlabelled inhibitor. HPPD preparations suitable for use in the methods of the current invention are relatively unpurified, buffer-exchanged, supernatant fractions of spun crude lysates of E. coli strains engineered to express the HPPD enzyme of interest at a level of, typically, about 0.25-10% of the total soluble protein. Many methods such as radiometric, fluorimetric, NMR, fluorescence depolarisation, EPR, Mossbauer, UV/VIS spectrophotometry etc. or phonon resonance can, in principle, be used to monitor the enzyme/ligand exchange reactions and, particularly in this case where the enzyme contains an iron atom at the ligand binding site. Optionally, the monitoring method may be continuous (as, for example, with scintillation proximity/bead-based methods) or, discontinuous, based upon collection of data at various timepoints wherein samples are removed and the bound and unbound label components rapidly separated and quantitated.
as §1, with “reaction. It will be appreciated that within the scope of the current invention many methods of making the desired kinetic comparisons are possible without explicit or rigorous determination of off rates but, based upon the same underlying principle, will achieve the same selection result.” for “reaction.”
The dissociation rates (off rates) of inhibitors selected from Formula 1 and/or 2 and/or 3 and/or 4 from the complexes that they form with test and control HPPD enzymes are suitably measured in a number of ways. Thus, for example, the rates of dissociation of mesotrione, a compound selected from Formula 1 and of the diketonitrile of isoxaflutole, a compound selected from Formula 3 from their respective complexes with, test, wheat HPPD and with, control, Arabidopsis HPPD are compared. The method and results from a typical test are as follows.
^14C mesotrione is of specific activity 1.12 GBq/mmol. This is ˜95% pure radiochemically by TLC and based upon the proportion of material tight-binding to HPPD. Arabidopsis and, (test), wheat HPPD are each diluted to a concentration of ˜0.45 and 0.54 μM, respectively into 1.6 ml of 50 mM Bis-Tris propane buffer at pH 7.0 containing 25% glycerol, 25 mM sodium ascorbate and 3 mg/l of bovine catalase (Sigma C3155˜50,000 units/mg) containing […] ^14C mesotrione and left to react at 25 C for 2.5-3 h. Following this initial binding reaction, exchange reactions are initiated by addition of cold mesotrione to a final concentration of 60 μM and 200 μl aliquots removed at various times to rapid chromatography down a NAP5 gel filtration column equilibrated in 50 mM BTP at pH 7 containing 0.1 M KCl, separation into fractions containing protein-bound or free radiolabel and liquid scintillation counting. […]

[3] = molecular target: P. fluorescens HPPD (Pseudomonas fluorescens, UniProt A0ACG8AE61); experiment: as above; assay type: binding
Chain of P. fluorescens HPPD (A0ACG8AE61 entry or part of it): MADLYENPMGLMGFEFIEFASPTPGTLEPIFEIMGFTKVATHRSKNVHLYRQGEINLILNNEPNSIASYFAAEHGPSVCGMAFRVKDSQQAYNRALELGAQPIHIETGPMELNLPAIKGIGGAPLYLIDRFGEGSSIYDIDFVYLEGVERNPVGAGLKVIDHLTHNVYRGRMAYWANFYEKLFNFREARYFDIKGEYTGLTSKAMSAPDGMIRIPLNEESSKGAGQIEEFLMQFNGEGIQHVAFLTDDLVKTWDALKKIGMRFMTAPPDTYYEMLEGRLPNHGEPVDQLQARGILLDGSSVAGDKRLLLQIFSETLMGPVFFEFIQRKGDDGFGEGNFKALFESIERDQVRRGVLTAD
Source text: as §2
as §1, with “reaction. It will be appreciated that within the scope of the current invention many methods of making the desired kinetic comparisons are possible without explicit or rigorous determination of off rates but, based upon the same underlying principle, will achieve the same selection result. […]” for “reaction.”
Not all test inhibitors are readily available in a radiolabelled form. A more general method of measuring off rates is to first form the complex with unlabelled test inhibitor, to rapidly exchange the complex free of excess unlabelled inhibitor and to then start the exchange reaction by addition of an excess of a standard labelled inhibitor, the kinetic properties of which are already known. The reaction is then monitored and the relative proportions of bound and unbound label determined at various times. […] The latter is the method of choice when the rate of exchange is fast (t½<3 h).
In, variants of the above methods, off rates are measured either in the presence or absence of ˜25% v/v glycerol. In the presence of glycerol values obtained are generally ˜1.5-3× slower than in its absence although sometimes the change is outside this range or, even, in the other direction. Further examples of data obtained are depicted in the following Table 3.
Crude Extracts of recombinant E. coli strains expressing, in the one case, a control HPPD (from Arabidopsis) and, in the other, one or more test HPPD sequences are prepared as described in the preceding example. The titre of active sites and enzyme activity are also defined and measured as described in the preceding examples. […]

[4] = molecular target: Avena HPPD (Avena sativa, UniProt A0ACD5V6K6); experiment: In vitro measurements of Avena HPPD (dissociation rate constants, Ki); assay type: binding; conditions: read-out: rate constants governing dissociation of the complexes
Chain of Avena HPPD (A0ACD5V6K6 entry or part of it): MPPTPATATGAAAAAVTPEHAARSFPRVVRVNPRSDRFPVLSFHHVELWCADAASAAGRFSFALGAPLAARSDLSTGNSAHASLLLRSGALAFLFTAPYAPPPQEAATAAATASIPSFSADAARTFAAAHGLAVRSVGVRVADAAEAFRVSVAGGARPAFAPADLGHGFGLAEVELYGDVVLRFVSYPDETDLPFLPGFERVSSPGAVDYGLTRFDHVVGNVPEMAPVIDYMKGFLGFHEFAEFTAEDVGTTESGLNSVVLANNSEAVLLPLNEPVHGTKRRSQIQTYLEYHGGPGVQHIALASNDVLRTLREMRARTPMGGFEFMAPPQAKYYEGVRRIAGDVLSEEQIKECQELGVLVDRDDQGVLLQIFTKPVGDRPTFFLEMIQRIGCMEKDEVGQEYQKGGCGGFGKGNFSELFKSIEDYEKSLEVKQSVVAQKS

[5] = tested on: tobacco plants transformed to express wheat HPPD; experiment: Tolerance of tobacco transformed with wheat HPPD to herbicides; assay type: in vivo; conditions: in vivo
Source text: These constructs were all transformed into Agrobacterium tumefaciens strain LBA4404, which in turn was used to transform tobacco, using methodology described previously.
Explants (i.e. a leaf plus short segment of stem containing the auxiliary bud) are placed into MS agar (+3% sucrose) containing various concentrations of mesotrione (see above) from 0.02 to 2 ppm.

[6] = tested on: tobacco plants transformed to express wheat HPPD; experiment: Glasshouse spray test, visible damage; assay type: in vivo
Experimental: (§3) Plants are 1) untransformed tobacco plants variety Samsun expressing the endogenous tobacco (control) HPPD gene, 2) tobacco plants transformed to express Pseudomonas HPPD according to the examples herein and 3) tobacco plants transformed to express Wheat HPPD also according to the examples herein.
(§4) Large numbers of plants are grown from seed in small pots in the glasshouse to the 5-7 leaf seedling stage and sprayed with a range of doses, suitably from 0.0 to 2000 g/ha, of different HPPD-inhibitor herbicides selected from compounds of Formula 1, 2, 3 and 4. Treatments are suitably Formulated in, for example, deionised water+0.5% Turbocharge™ surfactant or, alternatively, 50% acetone/water and applied at […] to a dozen or more replicates of each line and at each spray rate (where the plants were T1 plants (selfed progeny of primary transformants) and still segregating at normally 1:2:1) or, where, homozygous, 3-6 plants. The extent of visible damage in terms of bleaching of meristems and leaves, eventual necrosis and stunting of growth relative to unsprayed controls is assessed at ˜1 and 3 weeks after treatment. Data from susceptible segregants are excluded from the analysis. In summary, results obtained are as follows.

[7] = tested on: untransformed tobacco plants variety Samsun; experiment: Glasshouse spray test, visible damage; assay type: in vivo; conditions: spray 0.0 to 2000 g/ha, assessed ~1 and 3 weeks after treatment
Experimental: as §3, §4

[8] = tested on: tobacco plants transformed with Avena sativa 4-HPPD gene; experiment: Tolerance of tobacco transformed with Avena sativa HPPD to herbicides; conditions: in vivo
Source text: The structure of the resulting vector is shown schematically in FIG. 4.
The 4-HPPD plant expression cassette is then ligated in to the binary vector pBin19 restricted with Hind III and EcoRI and transformed into E. coli TOP10 cells (Invitrogen). This binary vector is then transformed into tobacco using methods well known in the art and, for example, as described elsewhere herein.

Compound	pKd [1]	ratio Kd4/Kd1, structure V to structure I [1]	koff ([1]; − glycerol) [s⁻¹]	pKd ([2]; Kd, without glycerol, Kd = koff/kon)	koff ([2]; − glycerol) [s⁻¹]	ratio Kd4/Kd1, structure V to structure I [3]	pKd ([3]; without glycerol, Kd = koff/kon, read-out: Kd)	koff ([3]; − glycerol) [s⁻¹]	koff [4] [s⁻¹]	resistance of the transgenic plants compared with that to mesotrione [5]	fold less susceptible of mesotrione than of the named herbicide [6]	fold more susceptible of the herbicide than of mesotrione [7]	resistance of the transgenic plants compared with that to mesotrione [8]
CC1(C)C(=O)C(C(=O)c2ccc(Cl)cc2[N+](=O)[O-])C(=O)C(C)(C)C1=O [Structure V, 2-[2-nitro-4-chlorobenzoyl]-4,4,6,6-tetramethylcyclohexane-1,3,5-trione]	11.40	0.28	1.25e-06	10.96	4.2e-06	> 4.3	< 8.82	> 0.0002	< 4e-06				
CS(=O)(=O)c1cc(C(F)(F)F)ccc1C(=O)c1cnoc1C1CC1 [isoxaflutole, 5-cyclopropyl-4-(2-methylsulphonyl-4-trifluoromethylbenzoyl)-isoxazole]										substantially less resistant	4-10 fold	1-2 fold	substantially less resistant
